Measured values from ChEMBL document CHEMBL1201862, “PubChem BioAssay data set” (2004).
Calls of active or inactive are those of the source.

Assays:
Large T antigen = Large T antigen (Simian virus 40, UniProt P03070); type: functional, Betapolyomavirus macacae;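 also: Confirmatory-stage PubChem screen for compounds that inhibit SV40 T antigen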
[1] = biological target: T1, Rac GTPase-activating protein 1 (Homo sapiens, UniProt Q9H0H5); experiment: blockers of MgcRacGAP-driven Rac1 GTP hydrolysis – biochemical, ADP Hunter fluorescence, primary and confirmatory, confirmation (AID 624330); type: functional
T1 sequence (Q9H0H5 whole entry): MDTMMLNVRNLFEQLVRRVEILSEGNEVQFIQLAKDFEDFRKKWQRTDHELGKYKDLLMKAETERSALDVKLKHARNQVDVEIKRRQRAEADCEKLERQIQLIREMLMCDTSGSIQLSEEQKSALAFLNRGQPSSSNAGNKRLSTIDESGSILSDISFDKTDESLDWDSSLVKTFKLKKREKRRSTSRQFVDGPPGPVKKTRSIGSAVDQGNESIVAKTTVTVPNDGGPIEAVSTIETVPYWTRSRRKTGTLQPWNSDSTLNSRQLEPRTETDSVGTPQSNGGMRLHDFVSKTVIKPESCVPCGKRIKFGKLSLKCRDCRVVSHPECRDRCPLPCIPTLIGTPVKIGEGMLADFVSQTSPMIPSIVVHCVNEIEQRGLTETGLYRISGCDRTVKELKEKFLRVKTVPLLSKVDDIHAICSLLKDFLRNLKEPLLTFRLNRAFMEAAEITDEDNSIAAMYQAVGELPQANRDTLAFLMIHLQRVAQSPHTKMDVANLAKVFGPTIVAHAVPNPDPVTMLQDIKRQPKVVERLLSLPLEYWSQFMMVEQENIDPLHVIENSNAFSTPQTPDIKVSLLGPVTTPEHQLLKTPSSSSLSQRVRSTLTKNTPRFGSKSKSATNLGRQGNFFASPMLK

H9c2 = experiment: cells; type: functional, cell-based; settings: Rattus norvegicus, H9c2, Myocardium;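 also: confirmatory concentration-response retest of ultra-high-throughput screening hits for modulation of myocardial damage; cell death induced by hydrogen peroxide oxidative stress; compound pretreatment for 60 min then peroxide exposure for 2 h; potency is for protecting the cells against peroxide damage rather than for killing them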
cells [2] = type: functional
cells [3] = type: functional, cell-based
cells [4] = type: functional, cell-based; remark: listed apart in the source
[5] = biological target: T2, Heat shock factor protein 1 (Mus musculus, UniProt P38532); experiment: decrease of HSF1-responsive luciferase luminescence – cell-based, NIH3T3, dose retest, confirmation (AID 2382); type: functional;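 also: NIH3T3 fibroblasts with HSF1-driven luciferase reporter stressed by proteasome inhibitor MG132; luminescence from HSF1-driven luciferase expression after 8 hours of MG132 stress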
T2 sequence (P38532 whole entry): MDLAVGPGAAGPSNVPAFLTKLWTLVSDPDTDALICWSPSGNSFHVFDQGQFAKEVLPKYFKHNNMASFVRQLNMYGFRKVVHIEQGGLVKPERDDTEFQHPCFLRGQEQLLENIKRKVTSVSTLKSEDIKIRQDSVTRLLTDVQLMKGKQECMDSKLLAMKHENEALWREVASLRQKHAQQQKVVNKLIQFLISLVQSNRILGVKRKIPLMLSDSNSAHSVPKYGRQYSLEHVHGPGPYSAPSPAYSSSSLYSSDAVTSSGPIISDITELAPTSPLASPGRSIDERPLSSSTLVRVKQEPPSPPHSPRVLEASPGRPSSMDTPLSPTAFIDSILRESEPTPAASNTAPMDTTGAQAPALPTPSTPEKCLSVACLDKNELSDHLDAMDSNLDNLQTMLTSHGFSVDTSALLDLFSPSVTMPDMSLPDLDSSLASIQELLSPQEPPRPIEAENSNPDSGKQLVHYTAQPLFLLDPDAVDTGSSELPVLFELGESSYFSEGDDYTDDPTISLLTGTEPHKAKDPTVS

Fatty acid synthase = Fatty acid synthase (Homo sapiens, UniProt P49327); experiment: inhibition of human FAS-TE enzyme activity – biochemical, kinetic fluorescence intensity, dose response (AID 624326); type: functional;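 also: rate of fluorescence rise from hydrolysis of a fluorogenic O-methyl fluorescein ester substrate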
Sequence of Fatty acid synthase (P49327 whole entry): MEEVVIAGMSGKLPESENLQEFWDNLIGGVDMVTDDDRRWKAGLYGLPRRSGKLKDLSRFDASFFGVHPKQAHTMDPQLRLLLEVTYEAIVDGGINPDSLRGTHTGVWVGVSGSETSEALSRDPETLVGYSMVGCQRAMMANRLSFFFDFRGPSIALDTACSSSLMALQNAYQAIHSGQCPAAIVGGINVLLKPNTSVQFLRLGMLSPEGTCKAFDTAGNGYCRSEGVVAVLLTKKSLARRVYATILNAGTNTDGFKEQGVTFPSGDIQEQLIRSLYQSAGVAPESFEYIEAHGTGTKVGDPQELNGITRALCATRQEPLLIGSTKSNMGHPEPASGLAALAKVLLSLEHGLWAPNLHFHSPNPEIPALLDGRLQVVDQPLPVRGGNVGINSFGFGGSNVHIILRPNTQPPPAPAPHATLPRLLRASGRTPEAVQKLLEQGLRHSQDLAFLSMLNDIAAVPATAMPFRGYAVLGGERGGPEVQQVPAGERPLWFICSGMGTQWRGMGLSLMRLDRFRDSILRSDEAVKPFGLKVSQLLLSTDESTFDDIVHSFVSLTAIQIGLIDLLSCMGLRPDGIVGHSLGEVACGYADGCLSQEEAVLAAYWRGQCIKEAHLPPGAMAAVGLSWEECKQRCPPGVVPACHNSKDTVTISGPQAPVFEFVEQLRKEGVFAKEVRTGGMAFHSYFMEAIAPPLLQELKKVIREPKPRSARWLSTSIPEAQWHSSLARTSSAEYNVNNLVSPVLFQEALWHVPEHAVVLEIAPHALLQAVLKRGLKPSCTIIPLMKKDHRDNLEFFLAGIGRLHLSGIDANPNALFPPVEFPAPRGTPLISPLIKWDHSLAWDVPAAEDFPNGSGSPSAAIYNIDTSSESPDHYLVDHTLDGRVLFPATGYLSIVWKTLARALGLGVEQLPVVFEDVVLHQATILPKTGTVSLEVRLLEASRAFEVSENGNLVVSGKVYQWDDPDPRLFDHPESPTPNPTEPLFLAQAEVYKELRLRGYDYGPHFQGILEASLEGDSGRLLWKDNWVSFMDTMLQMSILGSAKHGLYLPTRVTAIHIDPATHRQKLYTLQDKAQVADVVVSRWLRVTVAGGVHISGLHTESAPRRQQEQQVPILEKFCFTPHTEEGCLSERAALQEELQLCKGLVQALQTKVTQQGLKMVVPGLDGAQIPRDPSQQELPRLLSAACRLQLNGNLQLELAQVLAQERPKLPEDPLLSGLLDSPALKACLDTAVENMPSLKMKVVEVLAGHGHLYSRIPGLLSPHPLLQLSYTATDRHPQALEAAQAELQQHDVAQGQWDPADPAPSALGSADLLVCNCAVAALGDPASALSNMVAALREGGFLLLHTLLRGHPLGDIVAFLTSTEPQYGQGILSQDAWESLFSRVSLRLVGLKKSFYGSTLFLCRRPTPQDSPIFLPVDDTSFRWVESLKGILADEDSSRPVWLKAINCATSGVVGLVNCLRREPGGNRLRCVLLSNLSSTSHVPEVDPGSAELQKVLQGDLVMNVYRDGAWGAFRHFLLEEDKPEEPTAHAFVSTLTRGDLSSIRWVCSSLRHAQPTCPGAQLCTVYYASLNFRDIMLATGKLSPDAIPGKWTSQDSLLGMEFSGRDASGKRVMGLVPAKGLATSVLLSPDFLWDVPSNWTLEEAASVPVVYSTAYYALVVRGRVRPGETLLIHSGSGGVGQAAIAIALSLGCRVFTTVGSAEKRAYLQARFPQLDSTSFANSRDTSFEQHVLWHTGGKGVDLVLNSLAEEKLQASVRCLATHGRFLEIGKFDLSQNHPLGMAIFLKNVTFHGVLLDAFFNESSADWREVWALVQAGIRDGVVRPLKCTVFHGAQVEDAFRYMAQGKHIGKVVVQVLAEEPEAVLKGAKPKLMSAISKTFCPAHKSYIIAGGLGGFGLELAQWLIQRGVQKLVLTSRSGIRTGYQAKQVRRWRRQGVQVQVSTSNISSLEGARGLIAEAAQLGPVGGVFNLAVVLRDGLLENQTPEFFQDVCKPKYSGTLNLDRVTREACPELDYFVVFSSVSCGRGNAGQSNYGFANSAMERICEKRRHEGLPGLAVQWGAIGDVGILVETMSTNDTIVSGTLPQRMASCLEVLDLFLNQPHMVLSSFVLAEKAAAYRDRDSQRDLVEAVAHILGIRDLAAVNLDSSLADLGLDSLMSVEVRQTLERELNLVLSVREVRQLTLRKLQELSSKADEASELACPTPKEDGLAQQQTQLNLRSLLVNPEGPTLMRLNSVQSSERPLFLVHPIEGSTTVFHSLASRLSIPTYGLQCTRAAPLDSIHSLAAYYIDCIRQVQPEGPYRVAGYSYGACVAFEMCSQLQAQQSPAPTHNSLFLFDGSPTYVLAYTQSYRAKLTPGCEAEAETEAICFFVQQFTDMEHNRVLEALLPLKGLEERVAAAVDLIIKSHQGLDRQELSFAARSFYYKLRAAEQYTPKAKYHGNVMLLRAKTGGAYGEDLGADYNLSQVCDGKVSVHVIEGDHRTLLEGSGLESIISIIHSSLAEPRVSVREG

Protein RecA = biological target: T3, Protein RecA (Mycobacterium tuberculosis, UniProt P9WHJ3); experiment: Fluorescence Cell-Free Homogeneous Dose Retest to Identify Inhibitors of RecA-Intein Splicing Activity. [Related pubchem assays (depositor defined):AID2097, AID2223, AID489010, AID492950]; type: functional
T3 sequence (P9WHJ3 whole entry): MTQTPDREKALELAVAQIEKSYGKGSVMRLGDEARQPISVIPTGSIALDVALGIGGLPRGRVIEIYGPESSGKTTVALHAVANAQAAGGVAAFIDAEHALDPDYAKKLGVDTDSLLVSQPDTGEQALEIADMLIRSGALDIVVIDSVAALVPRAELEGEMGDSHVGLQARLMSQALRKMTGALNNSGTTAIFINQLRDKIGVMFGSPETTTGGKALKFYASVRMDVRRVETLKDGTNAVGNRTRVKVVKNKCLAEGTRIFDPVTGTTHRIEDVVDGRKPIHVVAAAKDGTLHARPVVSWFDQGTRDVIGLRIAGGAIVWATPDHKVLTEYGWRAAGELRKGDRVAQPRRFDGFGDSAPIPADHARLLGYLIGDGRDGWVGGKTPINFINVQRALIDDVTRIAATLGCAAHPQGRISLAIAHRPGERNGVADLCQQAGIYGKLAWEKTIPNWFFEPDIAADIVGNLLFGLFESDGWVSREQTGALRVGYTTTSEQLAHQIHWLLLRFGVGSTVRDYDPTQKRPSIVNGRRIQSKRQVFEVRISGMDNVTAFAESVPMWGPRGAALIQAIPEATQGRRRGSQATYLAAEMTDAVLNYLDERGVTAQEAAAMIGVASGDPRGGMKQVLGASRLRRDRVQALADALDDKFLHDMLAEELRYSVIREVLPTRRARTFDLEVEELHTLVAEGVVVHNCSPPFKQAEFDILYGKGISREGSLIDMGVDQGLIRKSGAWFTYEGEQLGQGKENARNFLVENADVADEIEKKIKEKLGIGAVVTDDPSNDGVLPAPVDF

[6] = biological target: T4, Replicative DNA helicase DnaB (Mycobacterium tuberculosis, UniProt P9WMR3); experiment: DnaB intein splicing inhibitors, dose response, biochemical, cell-free fluorescence (AID 449749); type: functional
T4 sequence (P9WMR3 whole entry): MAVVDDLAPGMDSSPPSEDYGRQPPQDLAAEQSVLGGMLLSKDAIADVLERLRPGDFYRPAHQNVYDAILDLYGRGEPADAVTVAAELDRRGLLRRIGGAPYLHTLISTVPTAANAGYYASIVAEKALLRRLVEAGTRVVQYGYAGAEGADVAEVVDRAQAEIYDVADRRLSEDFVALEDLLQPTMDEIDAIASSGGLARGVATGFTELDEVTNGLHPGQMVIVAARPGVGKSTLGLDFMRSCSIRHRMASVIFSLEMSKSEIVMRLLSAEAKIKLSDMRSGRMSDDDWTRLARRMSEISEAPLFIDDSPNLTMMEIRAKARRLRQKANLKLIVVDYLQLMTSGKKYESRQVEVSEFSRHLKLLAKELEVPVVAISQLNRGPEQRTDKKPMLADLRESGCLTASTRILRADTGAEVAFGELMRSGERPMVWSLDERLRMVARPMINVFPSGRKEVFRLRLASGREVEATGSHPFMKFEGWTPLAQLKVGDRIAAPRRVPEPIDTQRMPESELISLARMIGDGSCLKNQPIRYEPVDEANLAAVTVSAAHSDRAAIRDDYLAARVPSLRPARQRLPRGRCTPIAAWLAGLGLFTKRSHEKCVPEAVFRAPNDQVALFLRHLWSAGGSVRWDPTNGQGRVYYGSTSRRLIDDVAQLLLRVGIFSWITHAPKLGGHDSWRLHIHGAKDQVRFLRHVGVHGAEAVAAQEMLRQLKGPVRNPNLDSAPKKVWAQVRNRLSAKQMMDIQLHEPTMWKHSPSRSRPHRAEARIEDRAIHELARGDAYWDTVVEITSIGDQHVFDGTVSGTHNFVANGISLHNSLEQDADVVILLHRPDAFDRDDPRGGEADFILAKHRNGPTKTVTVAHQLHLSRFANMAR

[7] = intracellular Trypanosoma cruzi inhibitors in host cells – cell-based, plate reader, cherry-pick samples, set 3, dose response (AID 651818); type: functional;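 also: compounds incubated with infected cells for about four days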
[8] = P. falciparum Dd2 growth inhibitors, dose response, SYBR Green, cherry-picked samples (AID 1159567); type: functional, cell-based
[9] = biological target: FAD-linked sulfhydryl oxidase ALR (Homo sapiens, UniProt P55789); experiment: ALR-catalysed DTT oxidation blockers – biochemical, H2O2 detection, luminescence, cherry-pick, dose response (AID 493248)
Sequence of FAD-linked sulfhydryl oxidase ALR (P55789 whole entry): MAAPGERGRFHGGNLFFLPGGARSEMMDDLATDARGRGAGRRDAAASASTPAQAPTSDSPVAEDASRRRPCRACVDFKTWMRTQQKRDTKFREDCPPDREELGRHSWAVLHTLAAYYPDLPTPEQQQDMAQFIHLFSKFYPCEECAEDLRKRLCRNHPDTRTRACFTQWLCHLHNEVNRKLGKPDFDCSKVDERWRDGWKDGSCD

Sequence of Large T antigen (P03070 whole entry): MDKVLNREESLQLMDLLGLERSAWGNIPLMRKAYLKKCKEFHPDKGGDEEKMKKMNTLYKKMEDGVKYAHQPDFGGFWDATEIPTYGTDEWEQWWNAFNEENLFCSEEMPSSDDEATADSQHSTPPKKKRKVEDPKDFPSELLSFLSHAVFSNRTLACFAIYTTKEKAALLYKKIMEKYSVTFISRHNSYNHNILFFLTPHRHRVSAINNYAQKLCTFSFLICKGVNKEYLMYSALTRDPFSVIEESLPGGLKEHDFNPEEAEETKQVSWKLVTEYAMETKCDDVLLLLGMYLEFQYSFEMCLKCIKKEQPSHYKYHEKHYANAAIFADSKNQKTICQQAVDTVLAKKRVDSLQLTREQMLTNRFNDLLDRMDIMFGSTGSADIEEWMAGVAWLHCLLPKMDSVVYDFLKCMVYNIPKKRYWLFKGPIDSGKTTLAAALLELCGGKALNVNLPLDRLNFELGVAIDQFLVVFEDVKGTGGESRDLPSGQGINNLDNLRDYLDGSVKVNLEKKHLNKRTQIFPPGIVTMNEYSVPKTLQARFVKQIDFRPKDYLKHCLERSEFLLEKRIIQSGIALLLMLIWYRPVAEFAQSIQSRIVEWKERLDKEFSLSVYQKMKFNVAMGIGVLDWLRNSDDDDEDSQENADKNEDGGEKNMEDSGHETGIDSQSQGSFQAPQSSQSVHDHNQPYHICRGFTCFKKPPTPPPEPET

O=c1cc(-c2ccc(O)c(O)c2)oc2cc(O)c(C3OC(CO)C(O)C(O)C3O)c(O)c12 (stereo unspecified)
IC50 (Large T antigen): 5.23 µM (active)
IC50 [1]: 42.9 µM (active)

O=C(NCc1ccco1)c1cc(-c2cccnc2)nc2ccc(Cl)cc12
IC50 (H9c2): > 79 µM (inactive)

COc1ccc(N2C(=O)CC(Sc3n[nH]c(-c4cccc(C)c4)n3)C2=O)cc1 (stereo unspecified)
IC50 (Large T antigen): 76.5 µM (active)

CCOc1cc(N2CCOCC2)c(OCC)cc1NC(=O)COC(=O)CCOc1ccc(C)cc1
IC50 (Large T antigen): > 100 µM (active)

O=C(NN=C(Cc1ccccc1)Cc1ccccc1)c1ccncc1
IC50 (cells [2]): 0.17 µM (active)

O=C(O)c1ccccc1C(=O)NC1=NN(c2ccccc2)CC1
IC50 (Large T antigen): 14.2 µM (active)

CCCCCn1c(=O)c(C(=O)NCc2ccccn2)c(O)c2ccccc21
IC50 (H9c2): 5.88 µM (active)

C=CCc1c(C)nc2c(-c3ccccc3)cnn2c1N1CCOCC1
EC50 (cells [3]): > 350 µM (not active)
EC50 (cells [4]): > 350 µM (not active)
EC50 [5]: > 195 µM (not active)

Cc1nc(N2CCN(c3ccccn3)CC2)c2c(C)c(C(=O)Nc3ccc(F)cc3)sc2n1
IC50 (H9c2): > 79 µM (inactive)

COc1cc(C(=O)NCCCNc2nc3cc(C)cc(C)c3cc2C#N)cc(OC)c1OC
IC50 (H9c2): > 79 µM (inactive)

Cc1cc(C)c(S(=O)(=O)N2CCN(C(=O)c3cc(O)nc4ccccc34)CC2)c(C)c1
IC50 (H9c2): > 79 µM (inactive)

CC(C)(C)OC(=O)NCCCC[C@H](NC(=O)c1[nH]cnc1C(=O)NCC(=O)OCc1ccccc1)C(=O)OC(C)(C)C
IC50 (Fatty acid synthase): 0.16 µM (active)

Cc1ccc(NC(=O)COC(=O)C2=COCCO2)c([N+](=O)[O-])c1
IC50 (cells [2]): 3.39 µM (active)

COc1ccc(C(=O)Nc2ccc(O)c3ccccc23)cc1
IC50 (Large T antigen): 30.8 µM (active)
EC50 (Protein RecA): 0.0744 µM (active)
AC50 [6]: 1.22 µM (active)

CCC(Oc1ccccc1)C(=O)Nc1ccccc1C(=O)N1CCCCC1 (stereo unspecified)
IC50 (H9c2): 23.8 µM (active)

COc1cc(NC(=O)c2ccc(-c3cn[nH]c3)c3ccoc23)cc(OC)c1OC
IC50 (H9c2): > 79 µM (inactive)

C[C@H]1CN([C@@H](C)CO)C(=O)c2cc(NS(=O)(=O)c3ccccc3)ccc2O[C@H]1CN(C)Cc1ccc(Cl)c(Cl)c1
AC50 [7]: 5.12 µM (active)

C[C@@H]1CN([C@H](C)CO)C(=O)Cc2cc(NC(=O)Cc3cn(C)c4ccccc34)ccc2O[C@H]1CN(C)Cc1ccc(Cl)c(Cl)c1
AC50 [7]: 3.78 µM (active)

C[C@H](CO)N1C[C@H](C)[C@H](CN(C)Cc2ccc(C(F)(F)F)cc2)Oc2ccc(NC(=O)Nc3ccc4c(c3)OCO4)cc2CC1=O
AC50 [7]: 5.85 µM (active)

C[C@@H]1CN([C@H](C)CO)C(=O)Cc2cc(NC(=O)Nc3ccc(C(F)(F)F)cc3)ccc2O[C@@H]1CN(C)S(=O)(=O)c1ccc(F)cc1
AC50 [7]: 7.08 µM (active)

C[C@@H]1CN([C@H](C)CO)C(=O)c2cccc(NC(=O)NC3CCCCC3)c2O[C@H]1CN(C)Cc1ccc(C(F)(F)F)cc1
AC50 [7]: 1.86 µM (active)

C[C@@H]1CN([C@H](C)CO)C(=O)Cc2cc(NC(=O)Nc3ccc4c(c3)OCO4)ccc2O[C@@H]1CN(C)Cc1ccc(Cl)c(Cl)c1
AC50 [7]: 3.71 µM (active)

C[C@H](CO)N1C[C@H](C)[C@H](CN(C)CC2CCCCC2)Oc2c(NC(=O)c3nc4ccccc4s3)cccc2C1=O
AC50 [7]: 3.31 µM (active)

C[C@@H]1CN([C@@H](C)CO)C(=O)Cc2cc(NC(=O)Nc3ccc(C(F)(F)F)cc3)ccc2O[C@@H]1CN(C)S(=O)(=O)c1ccccc1
AC50 [7]: 3.88 µM (active)

COc1cccc(C(C[N+](=O)[O-])c2c(C)[nH]n(-c3ccccc3)c2=O)c1 (stereo unspecified)
EC50 (cells [3]): > 350 µM (not active)
EC50 (cells [4]): > 350 µM (not active)
EC50 (Protein RecA): 2.25 µM (active)
AC50 [6]: 16.5 µM (active)

CO[C@@H]1CN(C)C(=O)c2ccc(NC(=O)Nc3ccc(F)cc3)cc2OC[C@@H](C)N(C(=O)c2ccc(F)cc2)C[C@H]1C
AC50 [8]: 8.03 µM (active)

CCN(CC)S(=O)(=O)c1ccc(N/N=C/c2ccc(O)cc2)nc1
IC50 (Large T antigen): 11.5 µM (active)
IC50 [1]: 31.5 µM (active)

COc1cc(/C=N\NC(=O)CNC(=O)c2cccc([N+](=O)[O-])c2)ccc1O
IC50 (Large T antigen): 3.75 µM (active)
IC50 [1]: 16.5 µM (active)
AC50 [9]: 2.41 µM (active)

O=C(Nc1ccc(F)cc1)N1CC(=O)N2[C@H](C1)[C@@H](c1ccc(C#Cc3ccc(F)cc3)cc1)[C@@H]2CO
AC50 [8]: 4.49 µM (active)

CO[C@H]1CN(C)C(=O)c2ccc(NS(=O)(=O)CC(F)(F)F)cc2OC[C@@H](C)N(Cc2nccs2)C[C@H]1C
AC50 [8]: > 39 µM (inactive)
